Laboratory results: patent publication US9895344B2, “Treating various disorders with 7,8-dihydroxyflavone and derivatives thereof” (EMORY UNIVERSITY, priority 2008, dated 2018)

Key:
TrkB [1] = biological target: T1, TrkB (Mus musculus, UniProt P15209); assay: Time course of TrkB activation in mouse brain; type: in vivo, C57BL/6J mice
T1 construct: from tissue; host or cells: mouse brain
Method: To compare the stimulatory effect on TrkB receptor in mouse brain, 1 mg/kg of these compounds was injected into C57BL/6J mice and monitored TrkB activation at different time points (see FIG. 28). […] In contrast, 7,8-DHF triggered TrkB activation 2 h after oral injection and peaked at 4 h and TrkB activity progressively faded away. The TrkB activity was demonstrable even at 16 h (FIG. 28).

caspase-3 activation = assay: Active caspase-3 ELISA in glutamate-treated cortical neurons; type: cell-based, rat; settings: 50 μM glutamate for 16 hours
Method: To quantitatively compare the anti-apoptotic activity of 7,8-DHF and 4′-DMA-7,8-DHF, cortical neurons were prepared from E16 rat embryonic cells and pretreated with various indicated concentrations of 4′-DMA-7,8-DHF and 7,8-DHF for 30 min, followed by 50 μM glutamate for 16 hours. The cell lysates were quantitatively analyzed with an active caspse-3 ELISA.

[2] = tested on: KA-induced neuronal apoptosis; assay: Kainic acid time course assay, oral TrkB agonists (caspase-3 immunoblot of brain lysates); type: in vivo, C57BL/6J mice; settings: 1 mg/kg orally, KA 20 mg/kg i.p., FIG. 30 left
Method: Male C57BL/6 mice age 60 days were orally injected with a single dose of 4′-DMA-7,8-DHF or 7,8-DHF (1 mg/kg each). KA (20 mg/kg) was i.p. injected. Animals were continually monitored for 2 hours for the onset of seizure activity. At 0, 4 and 8 hours following TrkB agonist treatment, the animals were sacrificed and the brain lysates were analyzed by immunoblotting with p-TrkB-Y817, active caspase-3 and total TrkB antibodies.
To investigate whether these compounds exert any neuroprotective effects in animals, a time course assay was conducted.

[3] = tested on: KA-induced caspase-3 activation; assay: KA-induced neuronal cell death in TrkB F616A mice, oral TrkB agonists; type: in vivo, TrkB F616A knock-in mice
Method: TrkB F616A knockin mice (2-3 months old) were fed 1NMPP1 (25 μM) in drinking water one day before pharmacological reagent treatment. The next day, the mice were orally injected with 7,8-DHF or 4′-DMA-7,8-DHF (5 mg/kg) 4 hours before kainic acid (20 mg/kg). The control mice were injected with saline, 1NMPP1, kainic acid alone or administrated 7,8-DHF or 4′-DMA-7,8-DHF 4 hours before kainic acid. In 4 days, the mice were sacrificed and brains were homogenized and ultra-centrifuged. The supernatant (40 μg) was employed for SDS-PAGE and immunoblotting analysis with indicated antibodies, respectively.
To explore whether the neuroprotective effect of these small molecules is dependent on TrkB activation in vivo, TrkB F616A knock-in mice were used.

[4] = tested on: progenitor proliferation in hippocampus; assay: Neurogenesis analysis in hippocampus (BrdU); type: in vivo, C57BL/6J mice; settings: 5 mg/kg daily for 21 days, compared to vehicle control, FIGS. 32 and 33
Method: Adult male mice (2-3 months old) were orally injected with saline, 4′-DMA-7,8-DHF and 7,8-DHF (5 mg/kg) for 21 days. Then BrdU (50 mg/kg) was i.p. injected. In 2 hours, the mice were perfused with 4% paraformaldehyde. Immunohistochemical staining was performed on formalin-fixed paraffin-embedded sections. Sections from brain were cut, deparaffinized in xylene and rehydrated in graded alcohols. The slides were boiled in 10 mM citric acid (pH 6.0) for 10 minutes followed by an incubation in 2 N HCl for 10 minutes in room temperature. The slides were then permeabilized and blocked with 1% BSA in 0.2% PBST. The incorporated BrdU were stained using anti-BrdU-FITC (Abcam, Inc; Cambridge, Mass.) at 4° C. for 16 hours. After three washes in PBS, the cells were stained with DAPI for another 10 minutes at room temperature. The slides were mounted with AquaMount (Lerner Laboratories; Pittsburgh, Pa.) containing 0.01% 1,4-diazobicyclo(2,2,2)octane and examined under a fluorescence microscope.
To test whether increasing TrkB activation by 4′-dimethylamino-7,8-dihydroxyflavone would elevate neurogenesis, adult male C57BL/6J mice were injected daily for 21 days with either vehicle, 7,8-DHF, or 4′-DMA-7,8-DHF (5 mg/kg). At the end of treatment (day 21), the animals were injected with BrdU (50 mg/kg, i.p.) to label the dividing cells and were sacrificed 2 hours later. […]

immobility = assay: Forced swim test after 21 days oral treatment; type: in vivo, C57BL/6J mice; settings: 5 mg/kg, oral injection, FIG. 34
Method: Adult male mice (2-3 months old) were randomly submitted to a forced swim test without a pre-swim. Saline, 4′-DMA-7,8-DHF and 7,8-DHF (5 mg/kg) were orally injected for 21 days. The mice were allowed to adapt to the test room for 2 days. The mice were placed in a clear glass cylinder with a diameter of 16 cm, half-filled with clear water at 24° C.
(§1) To explore whether 4′-DMA-7,8-DHF and 7,8-DHF have any antidepressant effect, a forced swim test (6 minutes, immobility recorded in the last 4 minutes) was conducted after chronic treatment of male C57BL/6J mice (8 mice/group) for 21 days via oral injection.

TrkB [5] = biological target: T1, TrkB; assay: Immunoblotting of brain lysates from forced swim test mice: TrkB; type: in vivo; settings: 5 mg/kg, 21 days oral, anti-p-TrkB 817, FIG. 35
Method: as §1

immobility time = assay: Forced swim test in TrkB F616A knockin mice with saline or 1NMPP1 pretreatment; type: in vivo; settings: drugs for five days, FIG. 36
Method: To assess whether the behavior responses by 7,8-DHF and its derivative are mediated by TrkB receptor, TrkB F616A knockin mice were utilized. The transgenic mice were subjected to saline or 1NMPP1 pretreatment (25 μM), respectively (drinking water provided one day prior to drug injection and maintained throughout whole experiment). The control and/or drugs were provided for five days. […] (Data presented in FIGS. 34, 35, and 36 as mean±SEM; *p<0.05 against vehicle, #P<0.01 against vehicle and ***P<0.0001 against vehicle, student t-test.)

[6] = Toxicity after 3-week chronic treatment (organ pathology, complete blood count); type: in vivo, mice; settings: mouse, in vivo
Method: To explore whether 4′-dimethylamino-7,8-dihydroxyflavone and 7,8-dihydroxyflavone have any intolerable toxicity, the major organs from mice treated with both compounds at 5 mg/kg/day for 3 weeks were analyzed.

TrkA = TrkA (Mus musculus, UniProt Q3UFB7); assay: Immunoblotting of brain lysates from forced swim test mice: TrkA; type: in vivo; parameters: from tissue; host or cells: mouse brain; settings: 5 mg/kg, 21 days oral, anti-p-TrkA 794, FIG. 35
Chain of TrkA (Q3UFB7 34-799): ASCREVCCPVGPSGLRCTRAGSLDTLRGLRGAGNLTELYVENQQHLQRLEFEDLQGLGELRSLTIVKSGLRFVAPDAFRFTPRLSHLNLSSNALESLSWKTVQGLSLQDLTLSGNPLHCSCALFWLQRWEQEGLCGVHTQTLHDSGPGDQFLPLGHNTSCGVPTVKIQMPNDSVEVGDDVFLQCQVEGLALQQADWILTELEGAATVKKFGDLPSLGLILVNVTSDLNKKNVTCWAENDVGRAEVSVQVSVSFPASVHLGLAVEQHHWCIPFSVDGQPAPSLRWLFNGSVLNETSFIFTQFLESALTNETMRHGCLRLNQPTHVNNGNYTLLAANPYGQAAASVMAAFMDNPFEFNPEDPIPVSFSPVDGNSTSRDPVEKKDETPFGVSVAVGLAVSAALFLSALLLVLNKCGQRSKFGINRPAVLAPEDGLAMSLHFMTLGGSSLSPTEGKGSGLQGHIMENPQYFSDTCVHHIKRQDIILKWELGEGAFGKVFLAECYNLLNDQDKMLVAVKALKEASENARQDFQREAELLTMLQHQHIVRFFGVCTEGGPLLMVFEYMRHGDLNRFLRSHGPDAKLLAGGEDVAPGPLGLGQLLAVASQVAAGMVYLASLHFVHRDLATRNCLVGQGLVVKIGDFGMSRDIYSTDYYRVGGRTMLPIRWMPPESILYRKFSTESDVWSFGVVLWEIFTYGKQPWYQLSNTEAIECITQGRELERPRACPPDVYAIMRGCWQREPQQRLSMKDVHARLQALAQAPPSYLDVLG
Method: as §1

TrkB [7] = biological target: T2, TrkB (Rattus norvegicus, UniProt Q63604); assay: TrkB activation in primary cortical neurons (p-TrkB Y817 immunoblotting); type: cell-based; parameters: endogenous in cells; host or cells: primary cortical neurons
T2 sequence (Q63604 32-821): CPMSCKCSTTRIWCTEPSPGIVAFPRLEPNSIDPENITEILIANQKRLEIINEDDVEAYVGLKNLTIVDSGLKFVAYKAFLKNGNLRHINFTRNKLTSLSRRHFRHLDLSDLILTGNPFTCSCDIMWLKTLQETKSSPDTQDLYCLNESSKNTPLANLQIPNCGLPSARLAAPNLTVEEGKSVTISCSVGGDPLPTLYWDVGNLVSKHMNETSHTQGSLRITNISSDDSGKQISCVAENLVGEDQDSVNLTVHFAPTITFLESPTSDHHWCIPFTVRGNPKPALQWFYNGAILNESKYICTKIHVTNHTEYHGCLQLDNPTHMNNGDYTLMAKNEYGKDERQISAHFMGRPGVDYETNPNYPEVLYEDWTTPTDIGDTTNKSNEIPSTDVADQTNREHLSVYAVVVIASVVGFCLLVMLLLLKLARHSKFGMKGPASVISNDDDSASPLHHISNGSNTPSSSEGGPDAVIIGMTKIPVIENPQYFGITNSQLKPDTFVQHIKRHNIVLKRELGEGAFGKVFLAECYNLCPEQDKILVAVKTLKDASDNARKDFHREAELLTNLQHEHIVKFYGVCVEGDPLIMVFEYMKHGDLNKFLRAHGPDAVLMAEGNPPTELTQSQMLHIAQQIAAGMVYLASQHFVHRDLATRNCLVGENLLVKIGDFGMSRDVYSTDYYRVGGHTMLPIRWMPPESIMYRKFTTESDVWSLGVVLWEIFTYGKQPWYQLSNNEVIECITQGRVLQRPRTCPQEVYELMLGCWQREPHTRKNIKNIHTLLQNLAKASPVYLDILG
Method: Primary cultured rat cortical neurons were prepared as follows. E17 rat pups were decapitated and cortex was extirpated, cross chopped, and suspended by pipetting for separation in 5% fetal calf serum (FCS), 5% horse serum (HS) DMEM. The cell suspension was then centrifuged at 250×g for 5 minutes. This operation was repeated again. Cells were seeded into polyethyleneimine-coated 10 cm^2 dishes and 12-well plates including coated-coverslips and incubated at 37° C. in 5% CO2/95% air. After 3 hours, the culture medium was changed to Neurobasal containing B-27 supplement (Invitrogen; Carlsbad, Calif.) and incubated for 4 days. For maintenance, half of the culture medium was changed to fresh Neurobasal/B27 every 4 days. After 1 week, the dished cultured neurons were ready for use.
To compare the TrkB activation by the synthetic compounds of Examples 9 and 10 (see FIG. 26), primary cortical cultures were prepared. The cortical neurons were treated with 500 nM of various compounds for 30 min and collected the cell lysates. […] Replacing the H-bond acceptor O atom with hydrogen bond donor NH reduced its stimulatory effect. […] In comparison, 7,8-DHF provoked TrkB activation with the minimal concentration of 100 nM (FIG. 27, right panels).

TrkB F616A = biological target: T3, TrkB F616A (Mus musculus, UniProt P15209, F616A); assay: TrkB phosphorylation in cortical neurons from TrkB F616A knockin mice; type: cell-based; settings: inhibitor 100 nM, pretreated 30 minutes
T3 construct: endogenous in cells; host or cells: cortical neurons of TrkB F616A knock-in mice
T3 sequence (P15209 32-821 F616A): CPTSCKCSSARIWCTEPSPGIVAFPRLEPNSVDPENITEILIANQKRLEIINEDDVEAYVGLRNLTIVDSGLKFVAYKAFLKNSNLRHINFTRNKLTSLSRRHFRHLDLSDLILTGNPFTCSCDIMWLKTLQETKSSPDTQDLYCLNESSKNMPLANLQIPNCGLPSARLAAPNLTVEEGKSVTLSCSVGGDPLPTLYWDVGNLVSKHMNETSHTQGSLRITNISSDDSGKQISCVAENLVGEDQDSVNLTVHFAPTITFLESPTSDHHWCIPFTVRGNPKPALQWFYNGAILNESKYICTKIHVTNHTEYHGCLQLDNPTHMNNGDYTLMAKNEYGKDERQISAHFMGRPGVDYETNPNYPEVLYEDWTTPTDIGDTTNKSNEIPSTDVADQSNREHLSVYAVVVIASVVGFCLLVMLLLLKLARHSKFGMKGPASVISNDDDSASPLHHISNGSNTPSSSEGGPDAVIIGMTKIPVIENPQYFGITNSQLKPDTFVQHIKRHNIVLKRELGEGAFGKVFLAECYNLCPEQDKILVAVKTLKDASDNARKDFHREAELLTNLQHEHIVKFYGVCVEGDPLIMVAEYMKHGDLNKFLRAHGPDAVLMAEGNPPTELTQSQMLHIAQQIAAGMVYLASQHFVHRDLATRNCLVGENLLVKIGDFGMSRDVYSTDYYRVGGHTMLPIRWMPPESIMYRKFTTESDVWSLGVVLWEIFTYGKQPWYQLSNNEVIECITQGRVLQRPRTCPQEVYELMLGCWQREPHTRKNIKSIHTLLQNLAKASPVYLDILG
Method: (§2) To explore whether the neuroprotective action of 7,8-dihydroxyflavone is dependent on TrkB activation in vivo, TrkB F616A knockin mice were used. […] To further assess whether 7,8-dihydroxyflavone can mimic BDNF, cortical neurons were prepared from TrkB F616A knockin mice. The cortical neurons were pretreated for 30 minutes with either K252a Trk tyrosine kinase inhibitor (100 nM) or 1NMPP1 inhibitor (100 nM) followed by 0.5 μM 7,8-dihydroxyflavone for 30 minutes.

Akt and Erk1/2 = Akt and Erk1/2 activation in cortical neurons from TrkB F616A knockin mice; type: cell-based; settings: inhibitor 100 nM
Method: as §2

TrkB [8] = biological target: T2, TrkB; assay: Western analysis of TrkB activation in hippocampal neurons; type: cell-based; parameters: endogenous in cells; host or cells: primary hippocampal neurons; settings: FIG. 10
Method: To further examine whether 7,8-dihydroxyflavone can stimulate TrkB-mediated downstream signaling cascades, Western analysis was performed.
To further test that the stimulatory effect of 7,8-dihydroxyflavone is mediated through TrkB, cells were either untreated or treated with K252a, a selective inhibitor of the tyrosine kinase activity of the Trk family of neutrophin receptors.

[9] = 1 mg/kg, oral injection, FIG. 28

T1 sequence (P15209 32-821): as the sequence (P15209 32-821 F616A) above, with A585F counted along it

CN(C)c1ccc(-c2cc(=O)c3ccc(O)c(O)c3o2)cc1 [4′-DMA-7,8-DHF, 4′-Dimethylamino-7,8-dihydroxyflavone]
TrkB activity at 16 h (TrkB [1]; [9]): partially decayed
time at which TrkB activation was elicited (TrkB [1]; [9]): 1 h
time at which TrkB activity peaked (TrkB [1]; [9]): 8 h
agonistic effect on TrkB relative to 7,8-DHF (TrkB [1]; mouse, in vivo): about 10 fold
duration of agonistic effect in animals relative to 7,8-DHF (TrkB [1]; mouse, in vivo): sustained longer
inhibitory effect on caspase-3 activation at 10 nM (caspase-3 activation; 10 nM): more robust inhibitory effect than 7,8-DHF
Glutamate-provoked caspase-3 activation (caspase-3 activation; 50 nM or higher concentrations, FIG. 29): substantially blocked
KA-induced neuronal apoptosis over time [2]: gradually decreased
KA-caused caspase-3 activation ([3]; 5 mg/kg orally 4 hours before kainic acid (20 mg/kg), FIG. 31): markedly diminished
protective effect after 1NMPP1 pretreatment ([3]; 1NMPP1 (25 μM) in drinking water, FIG. 31 top): abolished
TrkB phosphorylation after 1NMPP1 pretreatment ([3]; FIG. 31, 2nd panel): notably blocked
neurogenesis (BrdU) [4]: increased neurogenesis
swimming immobility (immobility): evidently reduced the immobility
TrkB activation in mouse brain (TrkB [5]): provoke TrkB
immobility time after 1NMPP1 treatment (immobility time; 1NMPP1 25 μM in drinking water): neither 4′-DMA-7,8-DHF nor 7,8-DHF had any significant effect
immobility time, saline group (immobility time): substantially reduced the immobility time
complete blood count (CBC) versus control saline-treated mice [6]: no significant difference
toxicity to the mice [6]: neither compound was toxic
TrkA activation in mouse brain (TrkA): not TrkA activation
TrkB activation (TrkB [7]; 500 nM, 30 min, FIG. 27 left): robustly provoked TrkB activation
minimal concentration triggering TrkB activation (titration assay) (TrkB [7]; FIG. 27 right): 10 nM

COC(=O)[C@@]1(O)C[C@H]2O[C@]1(C)n1c3ccccc3c3c4c(c5c6ccccc6n2c5c31)C(=O)NC4 [K252a]
blocking of BDNF-provoked TrkB phosphorylation (TrkB F616A): not
blocking of 7,8-dihydroxyflavone-provoked TrkB phosphorylation (TrkB F616A; 0.5 μM 7,8-dihydroxyflavone): not
blocking of BDNF-triggered Akt and Erk1/2 activation (Akt and Erk1/2): not
effect on TrkB tyrosine phosphorylation in cells exposed to 7,8-dihydroxyflavone (TrkB [8]): blocked TrkB tyrosine phosphorylation
